Values quoted from earlier work, collected in patent US20040067267A1, “Process for preparation of cholesterol lowering compositions from garlic” (priority 2002, published 2004).

Legend:
HMG CoA reductase = target: T1, HMG CoA reductase (Homo sapiens, UniProt P04035); details: for lowering of plasma LDL cholesterol levels: alone; for decrease of LDL levels: given along with bile acid binding resin (Bilheimer et al 1983)
T1 sequence (P04035 1-888): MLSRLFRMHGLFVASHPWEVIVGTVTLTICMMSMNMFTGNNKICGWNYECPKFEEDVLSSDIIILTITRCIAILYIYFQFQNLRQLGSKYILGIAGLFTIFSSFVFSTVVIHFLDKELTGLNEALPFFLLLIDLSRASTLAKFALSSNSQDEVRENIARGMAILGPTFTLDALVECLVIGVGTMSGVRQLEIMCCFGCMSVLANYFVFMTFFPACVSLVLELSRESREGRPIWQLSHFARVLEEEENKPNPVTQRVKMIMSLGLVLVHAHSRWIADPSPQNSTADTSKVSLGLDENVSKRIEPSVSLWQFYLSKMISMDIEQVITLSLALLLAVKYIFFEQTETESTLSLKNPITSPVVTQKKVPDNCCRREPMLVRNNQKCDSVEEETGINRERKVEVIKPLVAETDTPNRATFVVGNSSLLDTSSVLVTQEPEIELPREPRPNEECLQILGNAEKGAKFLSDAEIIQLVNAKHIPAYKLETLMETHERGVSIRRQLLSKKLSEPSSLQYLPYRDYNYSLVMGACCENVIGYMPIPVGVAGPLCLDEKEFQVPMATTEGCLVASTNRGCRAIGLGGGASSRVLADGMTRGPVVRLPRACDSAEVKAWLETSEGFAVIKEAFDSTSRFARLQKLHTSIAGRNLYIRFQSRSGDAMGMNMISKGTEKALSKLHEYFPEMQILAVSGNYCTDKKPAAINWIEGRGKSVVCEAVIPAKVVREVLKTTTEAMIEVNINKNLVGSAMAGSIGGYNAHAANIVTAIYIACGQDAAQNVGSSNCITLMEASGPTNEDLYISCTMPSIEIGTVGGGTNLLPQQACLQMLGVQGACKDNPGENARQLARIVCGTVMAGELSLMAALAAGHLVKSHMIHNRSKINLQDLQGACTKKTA

[1] = patients with primary hypercholesterolemia (Hoeg et al. 1984)

| Molecule | lowering of plasma LDL cholesterol levels (HMG CoA reductase) [%] | decrease of LDL levels (HMG CoA reductase) [%] | reduction of LDL cholesterol [1] | oral LD 50, female (mice) [mg/kg b.wt] | oral LD 50, male (mice) [mg/kg b.wt] |
| --- | --- | --- | --- | --- | --- |
| CC[C@H](C)C(=O)O[C@H]1CCC=C2C=C[C@H](C)[C@H](CC[C@@H]3C[C@@H](O)CC(=O)O3)[C@H]21 [Compaction] | 30 | 50 |  |  |  |
| NC[C@@H]1O[C@H](O[C@H]2[C@@H](O)[C@H](O[C@@H]3[C@@H](O)[C@H](N)C[C@H](N)[C@H]3O[C@H]3O[C@H](CN)[C@@H](O)[C@H](O)[C@H]3N)O[C@@H]2CO)[C@H](N)[C@@H](O)[C@@H]1O [Neomycin] |  |  | 15-20% |  |  |
| C=CCS[S+]([O-])CC=C (stereo not shown) [allicin] |  |  |  | 363 | 309 |
| C=CCSCC=C [diallyl sulfide] |  |  |  | 1805 | 2029 |
| C=CCSSCC=C [diallyldisulfide] |  |  |  | 130 | 145 |
| C=CCSC[C@H](N)C(=O)O [s-allyl-L-cysteine] |  |  |  | 9390 | 8890 |
| mevinolin | 30 | 50 |  |  |  |
